In patent US11753407B2, “Compounds for treating spinal muscular atrophy” (PTC Therapeutics, Inc., priority 2012, dated 2023):

Legend:
[1] = test system: SMN2 minigene mRNA (SMN2-A minigene) in HEK293H cells; assay: SMN2 minigene mRNA splicing RT-qPCR assay in cultured cells; type: cell-based, human; details: Homo sapiens, HEK293-H; concentration increasing full length SMN2 mRNA 1.5-fold relative to vehicle-treated cells; HEK293H cells with SMN2-A minigene, 24 hours, 7-point concentration data; read-out: EC1.5x for production of full length SMN2 mRNA
In short: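 Potency reflects the concentration that lifts full-length SMN2 minigene mRNA 1.5-fold above vehicle in stably transfected HEK293H cells after 24 h of treatment. Transcript abundance came from RT-qPCR as (1+E)^−Ct, normalized to GAPDH; endogenous SMN1/SMN2 are not detected.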

[2] = test system: Smn protein in SMA patient fibroblast cells (GM03813); assay: Smn protein assay in cultured cells (SMN HTRF); type: cell-based, human; details: SMA patient fibroblast cells, 48 hours; for EC1.5x for Smn protein expression: 7-point concentration curve, SMN HTRF, concentration producing 1.5 times Smn protein vs DMSO vehicle control; for maximum fold (Fold) increase of Smn protein: 7-point concentration data, fold relative to vehicle control
In short: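 Smn protein abundance in treated SMA fibroblasts was measured by HTRF after 48 h compound exposure. The reported EC1.5× is the concentration producing 1.5 times vehicle Smn levels.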

SMILES | EC (1.5-fold increase) [1] [µM] | EC1.5x for Smn protein expression [2] | maximum fold (Fold) increase of Smn protein [2] | melting point
COc1ccc(-c2cc(=O)n3cc(C4=C[C@H]5CC[C@@H](C4)N5)ccc3n2)cc1OC [Compound 262, 7-[(1R,5S)-8-azabicyclo[3.2.1]oct-2-en-3-yl]-2-(3,4-dimethoxyphenyl)-4H-pyrido[1,2-a]pyrimidin-4-one] | 0.1 to 0.3 | *** (an EC1.5× between >0.3 μM and ≤1 μM is indicated by three stars (***)) | ***** (a fold increase >1.65 is indicated by five stars (*****)) | 191 to 194 °C
Cc1nc2ccc(-c3cc(=O)n4cc(N5CC[C@@H](N(C)C)C5)ccc4n3)cc2o1 [Compound 264, 7-[(3R)-3-(dimethylamino)pyrrolidin-1-yl]-2-(2-methyl-1,3-benzoxazol-6-yl)-4H-pyrido[1,2-a]pyrimidin-4-one] | < 0.1 | **** (an EC1.5x≤0.3 μM is indicated by four stars (****)) | ***** (a fold increase >1.65 is indicated by five stars (*****)) | 203 to 207 °C
CCc1nc2ccc(-c3cc(=O)n4cc(N5CCNCC5)ccc4n3)cc2o1 [Compound 265, 2-(2-ethyl-1,3-benzoxazol-6-yl)-7-(piperazin-1-yl)-4H-pyrido[1,2-a]pyrimidin-4-one] | 1 to 3 |  | *** (a fold increase between >1.35 and ≤1.5 is indicated by three stars (***)) | 170 to 175 °C
CCc1nc2ccc(-c3cc(=O)n4cc(N5CCN[C@@H](C)C5)ccc4n3)cc2o1 [Compound 266, 2-(2-ethyl-1,3-benzoxazol-6-yl)-7-[(3S)-3-methylpiperazin-1-yl]-4H-pyrido[1,2-a]pyrimidin-4-one] | 1 to 3 |  | ** (a fold increase between >1.2 and ≤1.35 is indicated by two stars (**)) | 168 to 170 °C
Cc1nc2ccc(-c3cc(=O)n4cc(N5C[C@H]6CN(C)C[C@H]6C5)ccc4n3)cc2o1 [Compound 267, 2-(2-methyl-1,3-benzoxazol-6-yl)-7-[(3aR,6aS)-5-methylhexahydropyrrolo[3,4-c]pyrrol-2(1H)-yl]-4H-pyrido[1,2-a]pyrimidin-4-one] | < 0.1 | **** (an EC1.5x≤0.3 μM is indicated by four stars (****)) | ***** (a fold increase >1.65 is indicated by five stars (*****)) | 200 to 204 °C
Cc1cn2cc(-c3ccc4nc(N5CCNCC5)cc(=O)n4c3)cc(F)c2n1 [Compound 268, 7-(8-fluoro-2-methylimidazo[1,2-a]pyridin-6-yl)-2-(piperazin-1-yl)-4H-pyrido[1,2-a]pyrimidin-4-one] | < 0.1 | **** (an EC1.5x≤0.3 μM is indicated by four stars (****)) | ***** (a fold increase >1.65 is indicated by five stars (*****)) | 308 °C (dec.)
Cc1cn2cc(-c3cc(=O)n4cc(N5CCN6CCC[C@H]6C5)ccc4n3)cc(F)c2n1 [Compound 271, 2-(8-fluoro-2-methylimidazo[1,2-a]pyridin-6-yl)-7-[(8aS)-hexahydropyrrolo[1,2-a]pyrazin-2(1H)-yl]-4H-pyrido[1,2-a]pyrimidin-4-one] | < 0.1 | **** (an EC1.5x≤0.3 μM is indicated by four stars (****)) | ***** (a fold increase >1.65 is indicated by five stars (*****)) | 270 to 274 °C
Cc1cn2cc(-c3cc(=O)n4cc(N5CCN6CCC[C@@H]6C5)ccc4n3)cc(F)c2n1 [Compound 272, 2-(8-fluoro-2-methylimidazo[1,2-a]pyridin-6-yl)-7-[(8aR)-hexahydropyrrolo[1,2-a]pyrazin-2(1H)-yl]-4H-pyrido[1,2-a]pyrimidin-4-one] | < 0.1 | **** (an EC1.5x≤0.3 μM is indicated by four stars (****)) | ***** (a fold increase >1.65 is indicated by five stars (*****)) | 277 to 280 °C
Cc1cn2cc(-c3cc(=O)n4cc(N5CC[C@@H](N(C)C)C5)ccc4n3)cc(F)c2n1 [Compound 274, 7-[(3R)-3-(dimethylamino)pyrrolidin-1-yl]-2-(8-fluoro-2-methylimidazo[1,2-a]pyridin-6-yl)-4H-pyrido[1,2-a]pyrimidin-4-one] | < 0.1 | **** (an EC1.5x≤0.3 μM is indicated by four stars (****)) | ***** (a fold increase >1.65 is indicated by five stars (*****)) | 300 °C (dec.)
Cc1cn2cc(-c3cc(=O)n4cc(N5CC[C@H](N(C)C)C5)ccc4n3)cc(F)c2n1 [Compound 275, 7-[(3S)-3-(dimethylamino)pyrrolidin-1-yl]-2-(8-fluoro-2-methylimidazo[1,2-a]pyridin-6-yl)-4H-pyrido[1,2-a]pyrimidin-4-one] | < 0.1 | **** (an EC1.5x≤0.3 μM is indicated by four stars (****)) | ***** (a fold increase >1.65 is indicated by five stars (*****)) | 294 to 297 °C
COc1ccc(-c2ccc3nc(N4CC[C@@H](N(C)C)C4)cc(=O)n3c2)cc1F [Compound 277, 2-[(3R)-3-(dimethylamino)pyrrolidin-1-yl]-7-(3-fluoro-4-methoxyphenyl)-4H-pyrido[1,2-a]pyrimidin-4-one] | 1 to 3 |  | *** (a fold increase between >1.35 and ≤1.5 is indicated by three stars (***)) | 167 to 170 °C
COc1ccc(-c2ccc3nc(N4CC[C@H](N(C)C)C4)cc(=O)n3c2)cc1F [Compound 278, 2-[(3S)-3-(dimethylamino)pyrrolidin-1-yl]-7-(3-fluoro-4-methoxyphenyl)-4H-pyrido[1,2-a]pyrimidin-4-one] | 1 to 3 |  | ** (a fold increase between >1.2 and ≤1.35 is indicated by two stars (**)) | 167 to 169 °C
COc1ccc(-c2cc(=O)n3cc(N4C[C@H]5CN(CCO)C[C@H]5C4)ccc3n2)cc1F [Compound 279, 2-(3-fluoro-4-methoxyphenyl)-7-[(3aR,6aS)-5-(2-hydroxyethyl)hexahydropyrrolo[3,4-c]pyrrol-2(1H)-yl]-4H-pyrido[1,2-a]pyrimidin-4-one] | 0.1 to 0.3 |  | ** (a fold increase between >1.2 and ≤1.35 is indicated by two stars (**)) | 180 to 186 °C
COc1ccc(-c2cc(=O)n3cc(N4C[C@@H]5CCN(C)[C@@H]5C4)ccc3n2)cc1F [Compound 280, 2-(3-fluoro-4-methoxyphenyl)-7-[(3aS,6aS)-1-methylhexahydropyrrolo[3,4-b]pyrrol-5(1H)-yl]-4H-pyrido[1,2-a]pyrimidin-4-one] | 1 to 3 |  | * (A maximum fold increase of ≤1.2 is indicated by one star (*)) | 207 to 211 °C
COc1ccc(-c2cc(=O)n3cc(N4C[C@@H]5CN(C(C)C)C[C@@H]5C4)ccc3n2)cc1F [Compound 281, 2-(3-fluoro-4-methoxyphenyl)-7-[(3aR,6aS)-5-(propan-2-yl)hexahydropyrrolo[3,4-c]pyrrol-2(1H)-yl]-4H-pyrido[1,2-a]pyrimidin-4-one] | 0.1 to 0.3 |  | ** (a fold increase between >1.2 and ≤1.35 is indicated by two stars (**)) | 189 to 192 °C
COc1ccc(-c2cc(=O)n3cc(N4CC[C@@H](N(C)C)C4)ccc3n2)cc1F [Compound 282, 7-[(3R)-3-(dimethylamino)pyrrolidin-1-yl]-2-(3-fluoro-4-methoxyphenyl)-4H-pyrido[1,2-a]pyrimidin-4-one] | 0.3 to 1 |  | ** (a fold increase between >1.2 and ≤1.35 is indicated by two stars (**)) | 188 to 191 °C
Cc1nc2ccc(-c3cc(=O)n4cc(N5CCNC(C)(C)C5)ccc4n3)cc2s1 [Compound 283, 7-(3,3-dimethylpiperazin-1-yl)-2-(2-methyl-1,3-benzothiazol-6-yl)-4H-pyrido[1,2-a]pyrimidin-4-one] | < 0.1 | **** (an EC1.5x≤0.3 μM is indicated by four stars (****)) | **** (a fold increase between >1.5 and ≤1.65 is indicated by four stars (****)) | 200 to 202 °C
Cc1nc2ccc(-c3cc(=O)n4cc(N5CCN6CCC[C@@H]6C5)ccc4n3)cc2s1 [Compound 284, 7-[(8aR)-hexahydropyrrolo[1,2-a]pyrazin-2(1H)-yl]-2-(2-methyl-1,3-benzothiazol-6-yl)-4H-pyrido[1,2-a]pyrimidin-4-one] | 0.3 to 1 | *** (an EC1.5× between >0.3 μM and ≤1 μM is indicated by three stars (***)) | **** (a fold increase between >1.5 and ≤1.65 is indicated by four stars (****)) | 254 to 256 °C
